“Also recorded” adds a separate entry of the source. Each block holds one molecule with its values, some of them ahead of it.
How the values were obtained:
FXR [1] = target: T1, FXR (Homo sapiens, UniProt Q96RI1); test: GeneBLAzer FXR cell-based agonistic; details: compound alone, without GW4064; data not shown
T1 sequence (Q96RI1 262-486 limits assumed): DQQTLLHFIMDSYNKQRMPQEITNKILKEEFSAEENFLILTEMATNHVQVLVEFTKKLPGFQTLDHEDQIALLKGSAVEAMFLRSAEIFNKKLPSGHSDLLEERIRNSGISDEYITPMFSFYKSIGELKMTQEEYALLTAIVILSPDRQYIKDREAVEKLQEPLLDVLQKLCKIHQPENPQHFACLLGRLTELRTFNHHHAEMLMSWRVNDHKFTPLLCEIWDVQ

[2] = system: GeneBLAzer FXR-UAS-bla HEK 293T cells; test: Cytotoxicity assay in GeneBLAzer FXR cells; assay type: cell-based, human
FXR [3] = target: T1, FXR; test: GeneBLAzer FXR cell-based antagonistic; details: data not shown
GST-hFXR-LBD = target: T2, GST-hFXR-LBD (Homo sapiens, UniProt Q96RI1); test: FXR TR-FRET binding assay; details: Table 3; ratio fits the TR-FRET binding IC50
T2 sequence (Q96RI1 262-486 limits assumed): T1 sequence (Q96RI1 262-486 limits assumed)

activity against FXR at 1 µM (FXR [3]): essentially inactive
Structure (SMILES): COc1cccc(Cn2cc(C(=O)N(C)c3ccc(C)c(S(=O)(=O)N4CCOCC4)c3)c(-c3cccc(OC)c3)n2)c1 [Compound 8c, 1-(3-Methoxybenzyl)-3-(3-methoxyphenyl)-N-methyl-N-(4-methyl-3-(morpholinosulfonyl)phenyl)-1H-pyrazole-4-carboxamide]

activity against FXR at 1 µM (FXR [3]): essentially inactive
Structure (SMILES): Cc1ccc(-c2nn(C(C)C)cc2C(=O)N(C)c2ccc(C)c(S(=O)(=O)N3CCOCC3)c2)cc1 [Compound 8a, 1-Isopropyl-N-methyl-N-(4-methyl-3-(morpholinosulfonyl)phenyl)-3-(p-tolyl)-1H-pyrazole-4-carboxamide]

activity against FXR at 1 µM (FXR [3]): essentially inactive
Structure (SMILES): COc1cccc(Cn2cc(C(=O)N(C)c3ccc(C)c(S(=O)(=O)N4CCOCC4)c3)c(C(C)C)n2)c1 [Compound 8b, 3-Isopropyl-1-(3-methoxybenzyl)-N-methyl-N-(4-methyl-3-(morpholinosulfonyl)phenyl)-1H-pyrazole-4-carboxamide]

More lines, now with the values behind:

Structure (SMILES): COc1cccc(Cn2cc(C(=O)Nc3ccc(C)c(S(=O)(=O)N4CCOCC4)c3)c(-c3ccc(C)cc3)n2)c1 [Compound 4j, 1-(3-Methoxybenzyl)-N-(4-methyl-3-(morpholinosulfonyl)phenyl)-3-(p-tolyl)-1H-pyrazole-4-carboxamide]
FXR agonistic activity (FXR [1]): no detectable; also recorded: no FXR agonistic activity; also recorded: does not have any
cytotoxicity [2]: no detectable; also recorded: no cytotoxicity; also recorded: does not have any

Structure (SMILES): Cc1ccc(-c2nn(CC3CC3)cc2C(=O)Nc2ccc(C)c(S(=O)(=O)N3CCOCC3)c2)cc1 [Compound 4i, 1-(Cyclopropylmethyl)-N-(4-methyl-3-(morpholinosulfonyl)phenyl)-3-(p-tolyl)-1H-pyrazole-4-carboxamide]
fold decreased activity for FXR as compared to E16 (GST-hFXR-LBD): 2 fold

Source: PMC4147378 (Bioorganic & medicinal chemistry, 2014)
